Experimental data as given in patent US12637478B2, “Compound, preparation method thereof, and antibiotic composition comprising same” (priority 2020, dated 2026).
Values after ≈ are worked out from the molar mass of the structure shown. Like-named read-outs stand apart in the source and are kept apart here.

Key:
[1] = test system: E. faecalis^LinR; test: MIC by broth microdilution (aerobic pathogens), test strain 9; assay type: cell-based, Linezolid resistant Enterococcus faecalis; settings: Enterococcus faecalis; test strain 9, E. faecalis^LinR (linezolid resistant); read-out: MIC
Method: (§1) The antibacterial activity of the compounds of Examples 1 to 48 of the present invention against aerobic pathogens were evaluated by measuring the minimum concentration of the antibiotic capable of inhibiting bacterial growth by 90% compared to the growth of the non-drug treated control group. MIC was measured by the broth microdilution method based on CLSI standards [Reference: Clinical and Laboratory Standards Institute Document. (2000) Methods for Dilution Antimicrobial Susceptibility Test for Bacteria that Grow Aerobically-Fifth Edition: M7-A5. CLSI, Villanova, PA].
(§2) All 13 strains such as methicillin susceptible Staphylococcus aureus (MSSA), methicillin resistant Staphylococcus aureus (MRSA), Vancomycin resistant Staphylococcus aureus (VRSA), Staphylococcus epidermidis, methicillin resistant Staphylococcus epidermidis, Enterococcus faecalis, Vancomycin resistant Enterococcus faecalis, Enterococcus faecium, Vancomycin resistant Enterococcus faecium were used.

[2] = test system: C. difficile 173; test: MIC by agar dilution against Clostridioides difficile, test strain 17; assay type: cell-based; settings: test strain 17, C. difficile 173, anaerobic, agar dilution, read-out: MIC
[3] = test system: C. difficile 9689; test: MIC by agar dilution against Clostridioides difficile, test strain 13; assay type: cell-based; settings: test strain 13, C. difficile 9689, anaerobic, agar dilution, read-out: MIC
[4] = test system: S. aureus^MS; test: MIC by broth microdilution (aerobic pathogens), test strain 1; assay type: cell-based; settings: Staphylococcus aureus; test strain 1, S. aureus^MS; read-out: MIC
Method: as §1, §2

[5] = test system: C. difficile 174; test: MIC by agar dilution against Clostridioides difficile, test strain 18; assay type: cell-based; settings: test strain 18, C. difficile 174, anaerobic, agar dilution, read-out: MIC
[6] = test system: S. aureus^MS; test: MIC by broth microdilution (aerobic pathogens), test strain 2; assay type: cell-based; settings: Staphylococcus aureus; test strain 2, S. aureus^MS; read-out: MIC
Method: as §1, §2

[7] = test system: C. difficile 181; test: MIC by agar dilution against Clostridioides difficile, test strain 19; assay type: cell-based; settings: test strain 19, C. difficile 181, anaerobic, agar dilution, read-out: MIC
[8] = test system: C. difficile 152; test: MIC by agar dilution against Clostridioides difficile, test strain 14; assay type: cell-based; settings: test strain 14, C. difficile 152, anaerobic, agar dilution, read-out: MIC
[9] = test system: S. epidermis; test: MIC by broth microdilution (aerobic pathogens), test strain 5; assay type: cell-based; settings: Staphylococcus epidermidis
Method: as §1, §2

[10] = test system: E. faecalis; test: MIC by broth microdilution (aerobic pathogens), test strain 7; assay type: cell-based; settings: Enterococcus faecalis; test strain 7, E. faecalis; read-out: MIC
Method: as §1, §2

[11] = test system: S. epidermis^MR; test: MIC by broth microdilution (aerobic pathogens), test strain 6; assay type: cell-based, Methicillin resistant Staphylococcus epidermidis; settings: Staphylococcus epidermidis; test strain 6, S. epidermis^MR (methicillin resistant); read-out: MIC
Method: as §1, §2

[12] = test system: E. faecium^LinR; test: MIC by broth microdilution (aerobic pathogens), test strain 12; assay type: cell-based, Linezolid resistant Enterococcus faecium; settings: Enterococcus faecium; test strain 12, E. faecium^LinR (linezolid resistant); read-out: MIC
Method: as §1, §2

[13] = test system: C. difficile 161; test: MIC by agar dilution against Clostridioides difficile, test strain 16; assay type: cell-based; settings: test strain 16, C. difficile 161, anaerobic, agar dilution, read-out: MIC
[14] = test system: E. faecalis^VanA; test: MIC by broth microdilution (aerobic pathogens), test strain 8; assay type: cell-based, Vancomycin resistant Enterococcus faecalis; settings: Enterococcus faecalis; test strain 8, E. faecalis^VanA (vancomycin resistant); read-out: MIC
Method: as §1, §2

[15] = test system: E. faecium; test: MIC by broth microdilution (aerobic pathogens), test strain 10; assay type: cell-based; settings: Enterococcus faecium; test strain 10, E. faecium; read-out: MIC
Method: as §1, §2

[16] = test strain 5, S. epidermis, read-out: MIC

MIC [1]	MIC [2]	MIC [3]	MIC [4]	MIC [5]	MIC [6]	MIC [7]	MIC [8]	MIC [9, 16]	MIC [10]	MIC [11]	MIC [12]	MIC [13]	MIC [15]	Compound	MIC [9]	MIC [14]
0.5 µg/mL (≈ 0.417 µM)	0.5 µg/mL (≈ 0.417 µM)	0.25 µg/mL (≈ 0.208 µM)	0.25 µg/mL (≈ 0.208 µM)	0.25 µg/mL (≈ 0.208 µM)	0.125 µg/mL (≈ 0.104 µM)	1 µg/mL (≈ 0.833 µM)	0.25 µg/mL (≈ 0.208 µM)							C/C=C1\NC(=O)[C@H]([C@@H](C)O)NC(=O)c2csc(n2)-c2ccc(-c3nc(-c4nc(C(=O)NC5(C(=O)NCCCCCB(O)O)CC5)cs4)cs3)nc2-c2csc(n2)[C@H]([C@@H](C)O)NC(=O)c2csc(n2)[C@H](C(C)C)NC(=O)c2csc1n2 [Compound 21]		
			0.25 µg/mL (≈ 0.203 µM)		0.5 µg/mL (≈ 0.407 µM)			0.5 µg/mL (≈ 0.407 µM)	0.5 µg/mL (≈ 0.407 µM)	0.5 µg/mL (≈ 0.407 µM)	1 µg/mL (≈ 0.813 µM)			C/C=C1\NC(=O)[C@H]([C@@H](C)O)NC(=O)c2csc(n2)-c2ccc(-c3nc(-c4nc(C(=O)NC5(C(=O)NCCN6C(=O)CSC6=O)CC5)cs4)cs3)nc2-c2csc(n2)[C@H]([C@@H](C)O)NC(=O)c2csc(n2)[C@H](C(C)C)NC(=O)c2csc1n2 [Compound 36]		
0.5 µg/mL (≈ 0.404 µM)			1 µg/mL (≈ 0.807 µM)					1 µg/mL (≈ 0.807 µM)		0.5 µg/mL (≈ 0.404 µM)				C/C=C1\NC(=O)[C@H]([C@@H](C)O)NC(=O)c2csc(n2)-c2ccc(-c3nc(-c4nc(C(=O)NC5(C(=O)NCCN6CCN(C7CC7)CC6)CC5)cs4)cs3)nc2-c2csc(n2)[C@H]([C@@H](C)O)NC(=O)c2csc(n2)[C@H](C(C)C)NC(=O)c2csc1n2 [Compound 33]		
	0.5 µg/mL (≈ 0.408 µM)	0.5 µg/mL (≈ 0.408 µM)		0.5 µg/mL (≈ 0.408 µM)		0.5 µg/mL (≈ 0.408 µM)	0.25 µg/mL (≈ 0.204 µM)					0.25 µg/mL (≈ 0.204 µM)		C/C=C1\NC(=O)[C@H]([C@@H](C)O)NC(=O)c2csc(n2)-c2ccc(-c3nc(-c4nc(C(=O)NC5(C(=O)NCc6ncc([N+](=O)[O-])n6C)CC5)cs4)cs3)nc2-c2csc(n2)[C@H]([C@@H](C)O)NC(=O)c2csc(n2)[C@H](C(C)C)NC(=O)c2csc1n2 [Compound 44]		
1 µg/mL (≈ 0.778 µM)			0.5 µg/mL (≈ 0.389 µM)		1 µg/mL (≈ 0.778 µM)			0.25 µg/mL (≈ 0.195 µM)	1 µg/mL (≈ 0.778 µM)	1 µg/mL (≈ 0.778 µM)				C/C=C1\NC(=O)[C@H]([C@@H](C)O)NC(=O)c2csc(n2)-c2ccc(-c3nc(-c4nc(C(=O)NC5(C(=O)NCCN6CCN(CCC(=O)OC)CC6)CC5)cs4)cs3)nc2-c2csc(n2)[C@H]([C@@H](C)O)NC(=O)c2csc(n2)[C@H](C(C)C)NC(=O)c2csc1n2 [Compound 24]		
0.5 µg/mL (≈ 0.399 µM)			1 µg/mL (≈ 0.798 µM)		1 µg/mL (≈ 0.798 µM)			1 µg/mL (≈ 0.798 µM)	1 µg/mL (≈ 0.798 µM)	1 µg/mL (≈ 0.798 µM)			1 µg/mL (≈ 0.798 µM)	C/C=C1\NC(=O)[C@H]([C@@H](C)O)NC(=O)c2csc(n2)-c2ccc(-c3nc(-c4nc(C(=O)NC5(C(=O)NCCCN6CCN(C7CC7)CC6)CC5)cs4)cs3)nc2-c2csc(n2)[C@H]([C@@H](C)O)NC(=O)c2csc(n2)[C@H](C(C)C)NC(=O)c2csc1n2 [Compound 15]		
	0.5 µg/mL (≈ 0.403 µM)	0.5 µg/mL (≈ 0.403 µM)		0.125 µg/mL (≈ 0.101 µM)		0.5 µg/mL (≈ 0.403 µM)	1 µg/mL (≈ 0.807 µM)					0.5 µg/mL (≈ 0.403 µM)		C/C=C1\NC(=O)[C@H]([C@@H](C)O)NC(=O)c2csc(n2)-c2ccc(-c3nc(-c4nc(C(=O)NC5(C(=O)NCCCn6cc([N+](=O)[O-])cn6)CC5)cs4)cs3)nc2-c2csc(n2)[C@H]([C@@H](C)O)NC(=O)c2csc(n2)[C@H](C(C)C)NC(=O)c2csc1n2 [Compound 13]		
			1 µg/mL (≈ 0.834 µM)		1 µg/mL (≈ 0.834 µM)									C/C=C1\NC(=O)[C@H]([C@@H](C)O)NC(=O)c2csc(n2)-c2ccc(-c3nc(-c4nc(C(=O)NC5(C(=O)NCCCNC6COC6)CC5)cs4)cs3)nc2-c2csc(n2)[C@H]([C@@H](C)O)NC(=O)c2csc(n2)[C@H](C(C)C)NC(=O)c2csc1n2 [Compound 17]		

Compound	MIC [1]	MIC [2]	MIC [3]	MIC [4]	MIC [5]	MIC [6]	MIC [7]	MIC [8]	MIC [9, 16]	MIC [10]	MIC [11]	MIC [12]	MIC [13]	MIC [15]	MIC [9]	MIC [14]
C/C=C1\NC(=O)[C@H]([C@@H](C)O)NC(=O)c2csc(n2)-c2ccc(-c3nc(-c4nc(C(=O)NC5(C(=O)NCCN6CCOCC6)CC5)cs4)cs3)nc2-c2csc(n2)[C@H]([C@@H](C)O)NC(=O)c2csc(n2)[C@H](C(C)C)NC(=O)c2csc1n2 [Compound 2]	1 µg/mL (≈ 0.834 µM)			1 µg/mL (≈ 0.834 µM)		1 µg/mL (≈ 0.834 µM)				0.5 µg/mL (≈ 0.417 µM)	0.5 µg/mL (≈ 0.417 µM)				0.25 µg/mL (≈ 0.208 µM)	0.5 µg/mL (≈ 0.417 µM)
